Results published in patent publication US11608342B2, “PDE9 inhibitors with imidazo triazinone backbone and imidazo pyrazinone backbone for treatment of peripheral diseases” (H. LUNDBECK A/S, priority 2015, dated 2023).

Key:
PDE9 = PDE9 (Homo sapiens (Human), UniProt O76083); assay: PDE9 inhibition assay; assay type: biochemical; conditions: 3H-cAMP substrate, SPA
Description: Reactions are initiated by addition of the cyclic nucleotide substrate, and reactions are allowed to proceed for one hr at room temperature before being terminated through mixing with 15 uL 8 mg/mL yttrium silicate SPA beads (Amersham). […] Following a 1 hour incubation the reactions were terminated by addition of 15 uL 8 mg/mL yttrium silicate SPA beads (Amersham). […] IC50 values were calculated by nonlinear regression using XLfit (IDBS).

[1] = Blood Brain Barrier penetration (brain-to-plasma distribution); assay type: in vivo, Male CD mice; conditions: mouse, 10 mg/kg subcutaneous
Description: Male CD mice (20-24 g) were housed pair-wise with free access to food and water for an acclimatization period of 3-7 days before initiation of experiments. Prior to dosing the animals were fasted overnight. During testing, mice were kept in individual cages. The brain-to-plasma distribution was assessed 30 minutes and 2 hours after subcutaneous administration of the test compound at a dose of 10 mg/kg (n=3 at each time point). The dose volume was 10 ml/kg using appropriate vehicle to solubilize each test compound. At the time of sampling, animals were anesthetized with isoflurane and a systemic blood sample collected by cardiac puncture into vacutainers containing sodium heparin as anti-coagulant. The blood was centrifuged at 3500 rpm for 10 minutes at 4° C. to obtain plasma. Following decapitation, brains were dissected out and transferred to pre-weighed vessels followed by tissue weights determination. Plasma and brains were stored at −80° C. until quantitative bioanalysis by LC-MS/MS. Results are expressed as ng/ml for plasma and ng/g for brain samples.

PDE9, sequence (O76083 whole entry): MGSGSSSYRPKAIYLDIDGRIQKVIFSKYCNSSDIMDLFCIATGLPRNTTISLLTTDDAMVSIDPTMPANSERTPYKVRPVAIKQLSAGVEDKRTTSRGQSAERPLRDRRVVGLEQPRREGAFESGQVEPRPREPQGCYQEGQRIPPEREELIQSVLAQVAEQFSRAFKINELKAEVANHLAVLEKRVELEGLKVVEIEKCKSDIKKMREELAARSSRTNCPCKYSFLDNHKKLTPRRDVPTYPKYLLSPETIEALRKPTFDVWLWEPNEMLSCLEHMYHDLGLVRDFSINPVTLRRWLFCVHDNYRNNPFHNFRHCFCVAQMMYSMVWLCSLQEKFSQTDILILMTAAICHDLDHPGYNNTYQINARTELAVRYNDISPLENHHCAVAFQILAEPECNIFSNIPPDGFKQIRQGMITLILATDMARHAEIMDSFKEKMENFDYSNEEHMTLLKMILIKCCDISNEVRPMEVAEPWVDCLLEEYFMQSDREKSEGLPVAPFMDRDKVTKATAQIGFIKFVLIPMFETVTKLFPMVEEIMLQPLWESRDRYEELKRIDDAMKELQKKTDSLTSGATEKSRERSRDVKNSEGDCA

Row | IC50 (PDE9) | Brain concentration after 120 minutes [1] | Brain concentration after 30 minutes ([1]; 30 min) | Structure (SMILES)
1 | 49 nM | 120 mm.: 7 ng/mL | – | C[C@@H]1CN(Cc2ncccn2)C[C@H]1c1cn2c(C3CCOCC3)ncc2c(=O)[nH]1 (single isomer, unassigned) [Compound (P3, enantiomer 1)]
2 | – | Below detection | Below detection | O=c1[nH]c(CN2CC(Oc3cccnc3)C2)cn2c(C3CCOCC3)ncc12 [Compound (P2), 6-[3-(pyridin-3-yloxy)-azetidin-1-ylmethyl]-3-(tetrahydropyran-4-yl)-7H-imidazo[1,5-a]pyrazin-8-one]
